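The compound was tested at five concentrations on cells cultured in 96-well plates, with a 48-hour exposure period. GI50 is the concentration that inhibits growth by half. At the TGI there is no net growth.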
Key:
Assay in all cases: DTP human tumour cell line panel, 48 h
HL-60(TB) leukemia = tested on: HL-60(TB) leukemia
MOLT-4 leukemia = tested on: MOLT-4 leukemia
SK-MEL-2 melanoma = tested on: SK-MEL-2 melanoma
HOP-92 NSCLC = tested on: HOP-92 NSCLC
SW-620 colon = tested on: SW-620 colon
DU-145 prostate = tested on: DU-145 prostate
M14 melanoma = tested on: M14 melanoma
RXF 393 renal = tested on: RXF 393 renal
786-0 renal = tested on: 786-0 renal
SF-268 CNS = tested on: SF-268 CNS

SMILES | GI50 (HL-60(TB) leukemia) | TGI (HL-60(TB) leukemia) | GI50 (MOLT-4 leukemia) | TGI (MOLT-4 leukemia) | GI50 (SK-MEL-2 melanoma) | TGI (SK-MEL-2 melanoma) | GI50 (HOP-92 NSCLC) | TGI (HOP-92 NSCLC) | GI50 (SW-620 colon) | TGI (SW-620 colon) | GI50 (DU-145 prostate) | TGI (DU-145 prostate) | GI50 (M14 melanoma) | TGI (M14 melanoma) | GI50 (RXF 393 renal) | TGI (RXF 393 renal) | GI50 (786-0 renal) | TGI (786-0 renal) | GI50 (SF-268 CNS) | TGI (SF-268 CNS)
NC(N)=N/N=C/c1ccc(Br)cc1 | 2.5 µM | > 100 µM | 3.98 µM | > 100 µM | 12 µM | 26.4 µM | 5.78 µM | 24 µM | 3.8 µM | 15.9 µM | 5.5 µM | 22.1 µM | 2.21 µM | 5.67 µM | 3.68 µM | 12.3 µM | 5.11 µM | 17.7 µM | 12.4 µM | 38.2 µM
COC(=O)CCc1c(/C=C2\N=C(c3ccc[nH]3)C=C2OC)[nH]c(C)c1C(=O)OCc1ccccc1 | 0.446 µM | 2.42 µM | 0.23 µM | 5.1 µM | 0.304 µM | 1.24 µM | 0.197 µM | 0.73 µM | 0.304 µM | 3.03 µM | 0.345 µM | > 55.6 µM | 0.256 µM | 0.784 µM | 0.549 µM | 3.38 µM | 0.159 µM | 1.3 µM | 0.514 µM | 8.23 µM
Nc1nc(Cl)c2ncn(Cc3ccc(-c4ccc(CCl)cc4)cc3)c2n1 | 19.4 µM | > 100 µM | > 100 µM | > 100 µM | 33.9 µM | > 100 µM | 1.3 µM | 23.6 µM | 14.1 µM | 76.1 µM | 12.6 µM | 25.6 µM | 13.3 µM | 29.4 µM | 12.1 µM | 54.4 µM | 12.9 µM | > 100 µM | 16.2 µM | 36.5 µM
O=C(CN1CCN(c2ccccn2)CC1)Nc1ccc(Cl)cc1C(=O)c1ccccc1Cl | 5.51 µM | > 100 µM | 5.49 µM | > 100 µM | > 100 µM | > 100 µM | 2.52 µM | 53.7 µM | > 100 µM | > 100 µM | > 100 µM | > 100 µM | 50.9 µM | > 100 µM | > 100 µM | > 100 µM | 1.57 µM | > 100 µM | > 100 µM | > 100 µM
COC(=O)[C@]1(C)CC[C@]2(C)CC[C@]3(C)C(=CC(=O)[C@@H]4[C@@]5(C)CCC(=O)NC(C)(C)[C@@H]5CC[C@]43C)[C@@H]2C1 | 16.2 µM | 41.6 µM | 10.5 µM | 31.6 µM | 21.6 µM | 95.3 µM | 10.7 µM | 24.2 µM | 27.3 µM | > 100 µM | 20.9 µM | 89.6 µM | 19.3 µM | 44.4 µM | 13.5 µM | 27.5 µM | 18.3 µM | 35 µM | 28.2 µM | > 100 µM
O=C1CC2OCC=C3CN4CCC56c7ccccc7N1C5C2C3CC46 (stereo not given) (tested in a mixture with another compound) | 0.103 µg/mL | 0.216 µg/mL | 11.5 µg/mL | 24.9 µg/mL | > 50 µg/mL | > 50 µg/mL | > 50 µg/mL | > 50 µg/mL | > 50 µg/mL | > 50 µg/mL | > 50 µg/mL | > 50 µg/mL | > 50 µg/mL | > 50 µg/mL | > 50 µg/mL | > 50 µg/mL | > 50 µg/mL | > 50 µg/mL | > 50 µg/mL | > 50 µg/mL
CCCCCCCCC(=O)NCCN(CCN)C(=O)CCCCCCCC | – | 5.32 µM | – | 8.57 µM | – | 30.1 µM | – | 37.1 µM | – | 6.31 µM | – | 27.9 µM | – | 22 µM | – | 34.1 µM | – | 12.4 µM | – | 17.5 µM
